These results are taken from patent US20210198269A1, “INHIBITORS OF GLUCOSE TRANSPORTERS (GLUTs)” (LEAD DISCOVERY CENTER GMBH, priority 2018, published 2021).

pIC50: −log10 of the molar value.

Holding throughout (type): cell-based
In one assay the target is T1, GLUT1 (Homo sapiens, UniProt P11166).
T1 construct: host or cells: DLD-1 (DLD1) cells
T1 sequence (P11166 1-492): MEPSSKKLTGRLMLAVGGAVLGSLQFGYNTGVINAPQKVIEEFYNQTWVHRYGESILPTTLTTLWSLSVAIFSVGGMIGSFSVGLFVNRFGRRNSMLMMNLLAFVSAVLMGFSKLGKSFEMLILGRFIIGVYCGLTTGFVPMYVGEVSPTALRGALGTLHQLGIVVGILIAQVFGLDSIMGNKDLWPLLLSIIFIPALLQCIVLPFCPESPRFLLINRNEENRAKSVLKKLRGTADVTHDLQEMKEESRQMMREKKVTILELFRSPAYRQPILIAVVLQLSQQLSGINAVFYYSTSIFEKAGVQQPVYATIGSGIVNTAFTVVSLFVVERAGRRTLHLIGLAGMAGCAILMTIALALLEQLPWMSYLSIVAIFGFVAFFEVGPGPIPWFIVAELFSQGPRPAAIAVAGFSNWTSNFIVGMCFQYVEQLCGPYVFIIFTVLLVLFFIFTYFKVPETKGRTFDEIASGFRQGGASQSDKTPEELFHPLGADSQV
Kind of assay: GLUT1 transporter activity assay (2-DG uptake) in DLD1 cells. As to conditions: DLD1 cell line; read-out: GLUT1 inhibitory activity (IC50). The text has this: (§1) GLUT 1, 2, 3 and 4 Transporter Activity Assays
(§2) Assays were based on the specificity assays reported by Kapoor et al., Proceedings of the National Academy of Sciences 2016, 113 (17) 4711-4716. For GLUT1, GLUT2, GLUT3 and GLUT4 specificity testing DLD1, CHO-hGLUT2, DLD-1-GLUT1−/− and CHO-hGLUT4 cell lines were used.
(§3) Assay protocols for 2-deoxy-Glucose (2-DG) Uptake Assay with DLD1 or DLD1-Glut1(−/−) cells or 7,000 CHOK1-SLC2A4 cells lines:
(§4) 14,000 DLD1 or DLD1-Glut1(−/−) cells or 7,000 CHOK1-SLC2A4 cells were seeded in black, clear bottom 384-well plates in glucose- and phenolred-free RPMI1640 medium supplemented with 1% FCS and 2 mM L-glutamine and allowed to attach overnight. Next day, cells were washed and incubated with compounds or DMSO and 1 mM 2-DG in glucose- and phenolred-free RPMI1640 medium for 30 min. Cells were then washed and lysed in 0.06 M HCl and 1% CHAPS for 15 min at 65° C. The amount of 2-DG in the lysate was determined by means of enzyme-coupled assay. For this 16 U/mL glucose-6-phosphate dehydrogenase, 0.2 U/mL diaphorase, 0.1 mM NADP^+ and 10 μM resazurin were added to the lysates. Resorufin fluorescence was determined as a measure of 2-DG uptake at ex/em 535/590 nm with a Victor Multilabel plate reader (Perkin Elmer). Blank values were subtracted from all readings and values were normalized to the DMSO control.

The target in a further assay is T2, GLUT3 (Homo sapiens, UniProt P11169).
T2 construct: host or cells: DLD-1-GLUT1(-/-) cells
T2 sequence (P11169 1-496): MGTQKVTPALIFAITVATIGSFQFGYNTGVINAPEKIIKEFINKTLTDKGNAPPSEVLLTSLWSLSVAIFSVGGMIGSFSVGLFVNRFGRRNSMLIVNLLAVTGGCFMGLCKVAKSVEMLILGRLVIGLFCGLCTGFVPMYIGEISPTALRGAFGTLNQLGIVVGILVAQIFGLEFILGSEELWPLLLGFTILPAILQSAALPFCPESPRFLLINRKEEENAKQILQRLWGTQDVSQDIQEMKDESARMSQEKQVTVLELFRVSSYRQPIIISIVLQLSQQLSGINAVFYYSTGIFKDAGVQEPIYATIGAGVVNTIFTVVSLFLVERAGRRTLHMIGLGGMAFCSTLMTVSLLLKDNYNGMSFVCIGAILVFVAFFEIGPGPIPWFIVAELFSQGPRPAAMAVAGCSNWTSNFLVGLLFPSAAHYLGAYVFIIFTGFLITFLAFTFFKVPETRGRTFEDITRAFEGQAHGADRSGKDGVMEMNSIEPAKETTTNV
Kind of assay: GLUT3 transporter activity assay (2-DG uptake) in DLD-1-GLUT1-/- cells. As to conditions: DLD-1-GLUT1-/- cell line; read-out: GLUT3 inhibitory activity (IC50).
Text: as §1, §2, §3, §4

The next assay deals with T3, GLUT4 (Homo sapiens, UniProt P14672).
T3 sequence (P14672 1-509): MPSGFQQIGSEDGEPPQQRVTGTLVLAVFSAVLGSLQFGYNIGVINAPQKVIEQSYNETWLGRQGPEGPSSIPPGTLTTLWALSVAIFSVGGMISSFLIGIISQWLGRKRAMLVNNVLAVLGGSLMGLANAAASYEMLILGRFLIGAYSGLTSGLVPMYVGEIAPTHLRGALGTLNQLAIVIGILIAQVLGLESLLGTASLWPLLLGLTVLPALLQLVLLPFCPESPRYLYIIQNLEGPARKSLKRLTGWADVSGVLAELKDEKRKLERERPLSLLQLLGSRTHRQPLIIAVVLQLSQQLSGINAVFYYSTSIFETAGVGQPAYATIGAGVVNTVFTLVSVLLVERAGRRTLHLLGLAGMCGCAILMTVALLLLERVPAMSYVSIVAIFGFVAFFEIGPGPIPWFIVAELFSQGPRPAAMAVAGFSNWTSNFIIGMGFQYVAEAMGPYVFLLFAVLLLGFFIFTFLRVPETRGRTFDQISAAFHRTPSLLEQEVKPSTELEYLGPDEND
Kind of assay: GLUT4 transporter activity assay (2-DG uptake) in CHO-hGLUT4 cells. Conditions: CHO-hGLUT4 cell line; read-out: GLUT4 inhibitory activity (IC50). As for the experimental part: CHOK1-SLC2A4 cells were generated by transfection of CHOK1 cells with pCMV6-Entry-GLUT4 (Origene #SC125240) using Lipofectamin2000 according to the supplier's instructions. Briefly, 1.5E5 cells/well CHOK1 cells were seeded in 6-well cell culture plates. After overnight incubation, DNA-lipid complexes (2 μg plasmid DNA, DNA:lipid ratio 1:10) were prepared in OptiMEM and then added to the cells. After 5 days incubation, 800 μg G418 was added to the culture medium to generate a stable polyclone. For monoclone selection, single cells were re-plated in 96-well plates, expanded and selected by transgene overexpression and functional performance.
as §1, §2, §3, §4

For the compound `Cc1ccc(CCNC(=O)c2cccc(N3C(=O)NC4CC3(C)Oc3c(OCc5cccnc5N)cccc34)c2)cc1` (stereo not drawn) [Compound A12, 3-(10-((2-Aminopyridin-3-yl)methoxy)-2-methyl-4-oxo-5,6-dihydro-2H-2,6-methanobenzo[g][1,3,5]oxadiazocin-3(4H)-yl)-N-(4-methylphenethyl)benzamide], the pIC50 (in general, the negative decadic logarithm of the IC50, by convention in mol/L) on GLUT1 was 5.40 to 6.00; at GLUT3, 5.40 to 6.00; at GLUT4, below 4.60.
Consider `CCNC(=O)c1cccc(N2C(=O)NC3CC2(C)Oc2c(OCc4ccccc4)cccc23)c1` (stereo not drawn) [Compound A38, 3-(10-(benzyloxy)-2-methyl-4-oxo-5,6-dihydro-2H-2,6-methanobenzo[g][1,3,5]oxadiazocin-3(4H)-yl)-N-(ethyl)benzamide], for which the pIC50 was 4.60 to 5.00 on GLUT1, 5.00 to 5.40 at GLUT3 and 4.60 to 5.00 at GLUT4.
Consider `Cc1ccc(CCNC(=O)c2cccc(N3C(=O)NC4CC3(C)Oc3c(OCc5cncc(C)c5)cccc34)c2)cc1` (stereo not drawn) [Compound A14, 3-(2-Methyl-10-((5-methylpyridin-3-yl)methoxy)-4-oxo-5,6-dihydro-2H-2,6-methanobenzo[g][1,3,5]oxadiazocin-3(4H)-yl)-N-(4-methylphenethyl)benzamide], for which the figures for the pIC50 on GLUT1, at GLUT3 and on GLUT4 were at least 6.52, at least 6.52 and 5.40 to 6.00, respectively.
`CC12CC(NC(=O)N1c1cccc(C(=O)N3CCc4ccccc43)c1)c1cccc(OCc3ccccc3)c1O2` (stereo not drawn) [Compound A19, 10-(benzyloxy)-3-(3-(indoline-1-carbonyl)phenyl)-2-methyl-5,6-dihydro-2H-2,6-methanobenzo[g][1,3,5]oxadiazocin-4(3H)-one]: the pIC50 on GLUT1 is 4.60 to 5.00; on GLUT3, 5.40 to 6.00; on GLUT4, below 4.60.
As for `CC12CC(NC(=O)N1c1cccc(C(=O)NC3Cc4ccccc4C3)c1)c1cccc(OCc3ccccc3)c1O2` (stereo not drawn) [Compound A24, 3-(10-(benzyloxy)-2-methyl-4-oxo-5,6-dihydro-2H-2,6-methanobenzo[g][1,3,5]oxadiazocin-3(4H)-yl)-N-(2,3-dihydro-1H-inden-2-yl)benzamide], the figures for the pIC50 at GLUT1, at GLUT3 and on GLUT4 were 4.60 to 5.00, 5.00 to 5.40 and 4.60 to 5.00, respectively.
As to `Cc1ccc(CCNC(=O)c2cccc(N3C(=O)NC4CC3(C)Oc3c(OCC5CC5)cccc34)c2)cc1` (stereo not drawn) [Compound A08, 3-(10-(Cyclopropylmethoxy)-2-methyl-4-oxo-5,6-dihydro-2H-2,6-methanobenzo[g][1,3,5]oxadiazocin-3(4H)-yl)-N-(4-methylphenethyl)benzamide], the values for the negative logarithm of the IC50 (pIC50) at GLUT1, on GLUT3 and on GLUT4 were at least 6.52, 6.00 to 6.52 and 5.40 to 6.00, respectively.
Take `CC12CC(NC(=O)N1c1cccc(C(=O)NC3CCc4ccccc4C3)c1)c1cccc(OCc3ccccc3)c1O2` (stereo not drawn) [Compound A26, 3-(10-(benzyloxy)-2-methyl-4-oxo-5,6-dihydro-2H-2,6-methanobenzo[g][1,3,5]oxadiazocin-3(4H)-yl)-N-(1,2,3,4-tetrahydronaphthalen-2-yl)benzamide]: the pIC50 on GLUT1 is below 4.60; at GLUT3, 5.00 to 5.40; at GLUT4, 4.60 to 5.00.
The like results for `Cc1ccc(CCNC(=O)c2cccc(N3C(=O)NC4CC3(C)Oc3c(OCc5ccncc5)cccc34)c2)cc1` (stereo not drawn) [Compound A09, 3-(2-Methyl-4-oxo-10-(pyridin-4-ylmethoxy)-5,6-dihydro-2H-2,6-methanobenzo[g][1,3,5]oxadiazocin-3(4H)-yl)-N-(4-methylphenethyl)benzamide] were, in that order, at least 6.52, 6.00 to 6.52 and 5.00 to 5.40.
The like results for `CC12CC(NC(=O)N1c1cccc(C(=O)NCc3ccccc3)c1)c1cccc(OCc3ccccc3)c1O2` (stereo not drawn) [Compound A39, 3-(10-(benzyloxy)-2-methyl-4-oxo-5,6-dihydro-2H-2,6-methanobenzo[g][1,3,5]oxadiazocin-3(4H)-yl)-N-(benzyl)benzamide] were, in that order, 4.60 to 5.00, 5.00 to 5.40 and 4.60 to 5.00.
The like results for `Cc1ccc(CCOC(=O)c2cccc(N3C(=O)NC4CC3(C)Oc3c(OCc5ccccc5)cccc34)c2)cc1` (stereo not drawn) [Compound A22, 4-methylphenethyl 3-(10-(benzyloxy)-2-methyl-4-oxo-5,6-dihydro-2H-2,6-methanobenzo[g][1,3,5]oxadiazocin-3(4H)-yl)benzoate] were, in that order, 5.00 to 5.40, 5.40 to 6.00 and below 4.60.
With `Cc1ccc(CCNC(=O)c2cccc(N3C(=O)NC4CC3(C)Oc3c(OCc5cncnc5)cccc34)c2)cc1` (stereo not drawn) [Compound A13, 3-(2-Methyl-4-oxo-10-(pyrimidin-5-ylmethoxy)-5,6-dihydro-2H-2,6-methanobenzo[g][1,3,5]oxadiazocin-3(4H)-yl)-N-(4-methylphenethyl)benzamide], the values for the pIC50 on GLUT1, on GLUT3 and at GLUT4 were 6.00 to 6.52, 6.00 to 6.52 and below 4.60, respectively.
